According to the supplement of paper PMC10307832:

Experiments:
Experiment in all cases: relative viability (nuclei count vs DMSO), 5 days (fraction); higher = more cells survive
kb NB 142-70 + Dasatinib = compound: C1CSC2=C(C(=O)N1)SC3=C2C=C(C=C3)O [kb NB 142-70] + Cc1nc(Nc2ncc(C(=O)Nc3c(C)cccc3Cl)s2)cc(N2CCN(CCO)CC2)n1 [Dasatinib] (partner 0.075 µM)
Procedure, shortened: (§1)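 Relative viability was taken as the ratio of nuclei in treated wells to nuclei in vehicle wells. Lung cancer cell lines in 1536-well plates received compounds by pin tool one day after seeding, either one drug alone or a fixed anchor-drug dose plus five library-drug doses (not always all listed) in √10 steps. Nuclei were counted on 4× images after 5 days of treatment, and values are medians of duplicate plates.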

[1] = compound: NCC(=O)Nc1ccc(-n2nc(C(F)(F)F)cc2-c2ccc3c(ccc4ccccc43)c2)cc1 + COc1cccc2cc(-c3nc([C@H]4CC[C@H](C(=O)O)CC4)n4ncnc(N)c34)[nH]c12 [OSI-027] (partner 0.5 µM)
Procedure, shortened: as §1

[2] = compound: NCC(=O)Nc1ccc(-n2nc(C(F)(F)F)cc2-c2ccc3c(ccc4ccccc43)c2)cc1 + Cc1nc(NC(=O)N2CCC[C@H]2C(N)=O)sc1-c1ccnc(C(C)(C)C(F)(F)F)c1 [Alpelisib] (partner 2 µM)
Procedure, shortened: as §1

[3] = compound: NCC(=O)Nc1ccc(-n2nc(C(F)(F)F)cc2-c2ccc3c(ccc4ccccc43)c2)cc1 + O=C(CCCCCCC(=O)Nc1ccccc1)NO [Vorinostat] (partner 1 µM)
Procedure, shortened: as §1

Cell Line | relative viability (kb NB 142-70 + Dasatinib; first compound 0.1 µM) | relative viability (kb NB 142-70 + Dasatinib; first compound 1 µM) | relative viability (kb NB 142-70 + Dasatinib; first compound 3.162 µM) | relative viability ([1]; first compound 0.02 µM) | relative viability ([1]; first compound 0.06325 µM) | relative viability ([1]; first compound 0.2 µM) | relative viability ([1]; first compound 0.6325 µM) | relative viability ([1]; first compound 2 µM) | relative viability ([2]; first compound 0.02 µM) | relative viability ([2]; first compound 0.06325 µM) | relative viability ([2]; first compound 0.2 µM) | relative viability ([2]; first compound 0.6325 µM) | relative viability ([2]; first compound 2 µM) | relative viability ([3]; first compound 0.02 µM) | relative viability ([3]; first compound 0.06325 µM) | relative viability ([3]; first compound 0.2 µM) | relative viability ([3]; first compound 0.6325 µM) | relative viability ([3]; first compound 2 µM)
NCI-H1651 | 0.438 | 0.44 | 0.174 | 0.655 | 0.929 | 0.628 | 0.584 | 0.803 | 0.927 | 0.964 | 0.969 | 0.847 | 0.941 | 0.593 | 0.442 | 0.543 | 0.612 | 0.554
NCI-H441 | 0.634 | 0.575 | 0.366 | 0.647 | 0.675 | 0.613 | 0.551 | 0.631 | 0.906 | 0.715 | 0.869 | 1.01 | 0.654 | 1.02 | 0.705 | 0.987 | 0.72 | 0.866
LCLC-103H | 0.459 | 0.521 | 0.505 | 0.412 | 0.43 | 0.443 | 0.575 | 0.429 | 0.924 | 0.916 | 1.03 | 0.917 | 0.985 | 0.674 | 0.831 | 0.818 | 0.77 | 0.862
LCLC-97TM1 | 0.787 | 0.95 | 0.882 | 0.656 | 0.567 | 0.503 | 0.625 | 0.606 | 0.206 | 0.271 |  | 0.239 | 0.206 | 0.596 | 0.713 | 0.699 | 0.69 | 0.637
NCI-H727 | 0.427 | 0.354 | 0.272 | 0.533 | 0.504 | 0.579 | 0.694 | 0.737 | 0.636 | 0.561 | 0.614 | 0.531 | 0.686 | 1.28 | 0.908 | 1.28 | 1.21 | 1.05
NCI-H1355 | 0.7 | 0.642 | 0.64 | 0.35 | 0.427 | 0.315 | 0.45 | 0.511 | 0.781 | 0.949 | 0.825 | 0.838 | 0.865 | 0.636 | 0.709 | 0.676 | 0.655 | 0.653
HOP-62 | 0.72 | 0.65 | 0.763 | 0.852 | 0.801 | 0.828 | 0.778 | 0.812 | 1.09 | 0.995 | 0.922 | 0.975 | 0.859 | 0.536 | 0.534 | 0.668 | 0.501 | 0.7
NCI-H2085 | 0.252 | 0.198 | 0.274 | 0.688 | 0.908 | 0.654 | 0.691 | 0.802 | 0.963 | 0.978 | 0.943 | 0.972 | 0.965 | 0.703 | 0.824 | 0.728 | 0.877 | 0.849
